A short description of the data set: Human HepG2 cell viability assay in 384 well format. In kind it is toxicity, cell-based. Also on record: dose 125 nL, time 70.5 hour; cytotoxicity at 70.5 h: concentration not given beside the values. Conditions: HepG2 cells, read-out: Inhibition.

Structures are written as SMILES.

Consider `CS(=O)(=O)N1CCc2sc(C(=O)NCc3ccccc3)cc21`, for which the cytotoxicity at 70.5 h was -9.68%.

Consider `CCOCC1CN(C(=O)c2cccnc2)Cc2cnn(C)c21` (stereo unspecified), for which the cytotoxicity at 70.5 h was -9.4%.

In the case of `CC(=O)N1CCC2(C1)c1ccccc1S(=O)(=O)N2CCC(C)C` (stereo unspecified), the cytotoxicity at 70.5 h is -11.2%.

In the case of `CC(C)Nc1nc(N2CCCC2)nc2c1CN(S(C)(=O)=O)CC2`, the cytotoxicity at 70.5 h was -1.08%.

`CN(C)CCNC(=O)c1cc2c(s1)CCN2S(C)(=O)=O`: the cytotoxicity at 70.5 h was -9.71%.

For `CCOCC1CN(C(=O)C2CCOCC2)Cc2cnn(C)c21` (stereo unspecified), the cytotoxicity at 70.5 h was 17.4%.

In the case of `COC(=O)CCC(=O)N1CCC2(CN(Cc3ccccc3)C2)C1`, the cytotoxicity at 70.5 h came to 21%.

Turning to `O=C([C@@H]1C[C@@H]2CCN(C3CCOCC3)C[C@H]2O1)N1CCCC1`, the cytotoxicity at 70.5 h is -4.52%.

Consider `Cc1ccc(NCc2cnc3n2CCN(c2ncccn2)CC3)nn1`, for which the cytotoxicity at 70.5 h was -2.11%.

In the case of `CN(C)C(=O)CN1C[C@@H]2OCCN(c3ncc(F)cn3)[C@@H]2C1`, the cytotoxicity at 70.5 h was found to be 0.597%.

Regarding `O=C([C@@H]1C[C@@H]2CCN(C3CCOCC3)C[C@@H]2O1)N1CCOCC1`, the cytotoxicity at 70.5 h is -7.48%.

In the case of `Cc1noc([C@@]23CCO[C@@H]2CCN(C(=O)CCC(C)C)C3)n1`, the cytotoxicity at 70.5 h amounted to 1.83%.

As to `Cc1noc([C@@]23CCO[C@@H]2CCN(C(=O)c2c(C)noc2C)C3)n1`, the cytotoxicity at 70.5 h is -1.33%.

Consider `O=C(c1ccco1)N1CCN2C[C@H](Oc3cncnc3)C[C@H]2C1`, for which the cytotoxicity at 70.5 h is 12.4%.

Take `COc1cc(N2CCn3cc(CNc4ccccn4)nc3C2)ncn1`: the cytotoxicity at 70.5 h was determined as 2.02%.

As to `CCc1cnc(N2C[C@H]3C[C@H](C(=O)NCC(C)C)[C@@H](C2)O3)nc1`, the cytotoxicity at 70.5 h came to 2.56%.

For the compound `CCc1cnc(N2C[C@H]3C[C@H](C(=O)NC4CCC4)[C@@H](C2)O3)nc1`, the cytotoxicity at 70.5 h is -1.31%.

Turning to `O=C(N1CCCC1)N1CCOCC2(CCN(Cc3cccs3)C2)C1` (stereo unspecified), the cytotoxicity at 70.5 h was 29.2%.

As to `Cc1cccc(N2CCc3ncc(CNS(C)(=O)=O)n3CC2)n1`, the cytotoxicity at 70.5 h was -11.6%.

Take `CN(C)C(=O)[C@H]1C[C@@H]2CCN(C3CCOCC3)C[C@@H]2O1`: the cytotoxicity at 70.5 h is -2.42%.

With `Cc1ccccc1C(=O)N1CCO[C@H]2[C@H](OCCN(C)C)CC[C@@H]21`, the cytotoxicity at 70.5 h is -2.16%.

With `O=C([C@@H]1C[C@@H]2CCN(C3CCOCC3)C[C@@H]2O1)N1CCCC1`, the cytotoxicity at 70.5 h is -5.63%.

Regarding `Cc1cc(C(=O)N2CCO[C@H]3[C@H](OCCN(C)C)CC[C@@H]32)c(C)[nH]1`, the cytotoxicity at 70.5 h is -9.02%.

As for `CN(C)C(=O)COCC1CN(S(C)(=O)=O)Cc2ncn(C)c21` (stereo unspecified), the cytotoxicity at 70.5 h was -6.55%.

As for `Fc1ccc(CN2CCCn3cnc(COCC4CC4)c3C2)cc1`, the cytotoxicity at 70.5 h was determined as 2.87%.

Turning to `COc1ccc(CN2CCCn3cnc(COCC4CC4)c3C2)cc1`, the cytotoxicity at 70.5 h was 1.46%.

Regarding `COCCN1C[C@@H](C)[C@@]2(COCCN(C(=O)c3cccs3)C2)C1`, the cytotoxicity at 70.5 h is 1.58%.

Consider `CC(C)OCc1ncn2c1CN(Cc1cnn(C)c1)CCC2`, for which the cytotoxicity at 70.5 h turned out to be 0.691%.

For `Cc1ccc(CN2CCOCC3(CCN(Cc4cccs4)C3)C2)o1` (stereo unspecified), the cytotoxicity at 70.5 h came out at 0.0959%.

As for `COc1ccc(CN2CCc3nnc(COCCN(C)C)n3CC2)cc1`, the cytotoxicity at 70.5 h was -17.3%.

As to `Fc1cnc(N2C[C@@H]3COC[C@]3(COc3ccccn3)C2)nc1`, the cytotoxicity at 70.5 h is 19.5%.

Regarding `CCc1ccc(CN2CCc3ncnc(-c4cccnc4)c3CC2)o1`, the cytotoxicity at 70.5 h is -6.08%.

As for `c1cncc(COCc2nnn3c2CN(Cc2ccsc2)CC3)c1`, the cytotoxicity at 70.5 h was -2.9%.

For the compound `c1cc(CN2CC[C@H]3CO[C@H](CN4CCOCC4)[C@H]3C2)cs1`, the cytotoxicity at 70.5 h is -11.2%.

`Cc1ccc(CN2CCn3c(CN4CCN(C)CC4)cnc3C2C)s1` (stereo unspecified): the cytotoxicity at 70.5 h is 21.3%.

Take `CC1c2ncc(CN3CCN(C)CC3)n2CCN1Cc1ccsc1` (stereo unspecified): the cytotoxicity at 70.5 h is -0.917%.
